Data on 59 compounds can be found in patent US11478460B2, “Diaryl substituted 6,5-fused ring compounds as C5aR inhibitors” (CHEMOCENTRYX, INC., priority 2017, dated 2022).

By IC50 is commonly meant the point on the concentration scale where inhibition reaches its midpoint.

The target of the experiment is C5aR (Homo sapiens (Human), UniProt P21730). In words: Chemotaxis assay using U937 cells (C5aR mediated migration). It counts as cell-based. Particulars: read-out: Mig IC50. A digest of the protocol: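 U937 monocytic cells, pretreated overnight with 0.5 mM cyclic AMP, placed at 100,000 cells in the upper well above 5 μm polycarbonate filters. Lower well held 0.03 nM C5a plus compound in HBSS/1% FBS; after 1.5 h at 37° C migrated cells counted directly or by CyQuant, giving IC50.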
Chain of C5aR (P21730 whole entry): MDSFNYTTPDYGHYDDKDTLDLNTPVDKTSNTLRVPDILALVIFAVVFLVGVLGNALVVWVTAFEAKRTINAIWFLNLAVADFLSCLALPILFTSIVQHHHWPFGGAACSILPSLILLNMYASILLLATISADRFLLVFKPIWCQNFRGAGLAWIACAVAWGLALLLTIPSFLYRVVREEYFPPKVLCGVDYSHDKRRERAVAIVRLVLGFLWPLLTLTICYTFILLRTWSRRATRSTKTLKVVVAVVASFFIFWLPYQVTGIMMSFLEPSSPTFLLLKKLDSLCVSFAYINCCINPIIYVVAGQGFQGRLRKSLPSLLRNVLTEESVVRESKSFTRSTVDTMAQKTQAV
As for `CCc1cccc(CC)c1-n1nc2c(c1-c1cc(F)c(NC(N)=O)cc1F)CN(Cc1cc(F)ccc1C(F)(F)F)CC2` [Example 1.028], the 50% inhibitory concentration (IC50) was at most 5 nM.
As to `CCc1cccc(CC)c1-n1nc2c(c1-c1cc(F)c(NC(N)=O)cc1F)CN(Cc1ccc(C#N)cc1C(F)(F)F)CC2` [Example 1.048], the half-maximal inhibitory concentration (IC50) is at most 5 nM.
With `Cc1cccc(OCC(C)C)c1-n1nc2c(c1-c1ccc(NC(N)=O)cc1)CN(c1ncccc1C(F)(F)F)CC2` [Example 1.271], the IC50 was in the range of 5 to 50 nM.
For `Cc1cccc(C)c1-n1nc2c(c1-c1cc(F)c(NC(N)=O)cc1F)CN(Cc1ccc(C(F)(F)F)cc1C(F)(F)F)CC2` [Example 1.060], the IC50 was 5 to 50 nM.
The same measure for `Cc1cccc(OCC(C)C)c1-n1nc2c(c1-c1ccc(NC(N)=O)cc1)CN(Cc1ccc(C(F)(F)F)cc1C(F)(F)F)CC2` [Example 1.357]: at most 5 nM; for `Cc1cccc(OCC(C)C)c1-n1nc2c(c1-c1ccc(NC(N)=O)cc1)CN(Cc1ccc(C(F)(F)F)cc1Cl)CC2` [Example 1.315]: at most 5 nM.
Regarding `CC(C)COc1ccccc1-n1nc2c(c1-c1cc(F)c(NC(N)=O)cc1F)CN(c1ncc(Cl)cc1Cl)CC2` [Example 1.189], the concentration for half-maximal inhibition (IC50) is at most 5 nM.
Take `Cc1cccc(C)c1-n1nc2c(c1-c1cc(F)c(NC(N)=O)cc1F)CN(c1ccc(OC(F)(F)F)cc1F)CC2` [Example 1.099]: the IC50 was at most 5 nM.
For `Cc1cccc(OCC(C)C)c1-n1nc2c(c1-c1cc(F)c(NC(N)=O)cc1F)CN(c1ncccn1)CC2` [Example 1.160], the half-maximal inhibitory concentration (IC50) is at most 5 nM.
Take `CCc1cccc(CC)c1-n1nc2c(c1-c1cc(F)c(NC(N)=O)cc1F)CN(Cc1c(F)cc(C(F)(F)F)cc1C(F)(F)F)CC2` [Example 1.062]: the IC50 was at most 5 nM.
For the compound `Cc1cccc(OCC(C)C)c1-n1nc2c(c1-c1ccc(NC(N)=O)cc1)CN(C(=O)OC(C)(C)C)CC2` [Example 1.439], the IC50 was 5 to 50 nM.
With `CCc1cccc(CC)c1-n1nc2c(c1-c1ccc(NC(N)=O)cc1)CN(Cc1ccccn1)CC2` [Example 1.283], the half-inhibitory concentration (IC50) was above 500 nM.
Under `CCc1cccc(CC)c1-n1nc2c(c1-c1cc(F)c(NC(N)=O)cc1F)CN(C(=O)C(C)C)CC2` [Example 1.030] stands 5 to 50 nM; under `CCc1cccc(CC)c1-n1nc2c(c1-c1ccc(NC(N)=O)cc1)CN(Cc1c(Cl)cccc1C(F)(F)F)CC2` [Example 1.297], 5 to 50 nM.
In the case of `COc1cc(CN2CCc3nn(-c4c(C)cccc4OCC(C)C)c(-c4ccc(NC(N)=O)cc4)c3C2)c(F)cc1Cl` [Example 1.305], the half-maximal inhibitory concentration (IC50) lay within 5 to 50 nM.
The same measure for `CCc1cccc(CC)c1-n1nc2c(c1-c1cc(F)c(NC(N)=O)cc1F)CN(Cc1ccc(C(F)(F)F)cc1C)CC2` [Example 1.064]: at most 5 nM; for `Cc1cnc(N2CCc3nn(-c4c(C)cccc4OCC(C)C)c(-c4ccc(NC(N)=O)c(F)c4)c3C2)c(F)c1` [Example 1.224]: at most 5 nM.
Consider `Cc1cc(C(N)=O)ccc1-c1c2c(nn1-c1c(C)cccc1OCC(C)C)CCN(c1cc(C(C)(C)C)ccc1C)C2` [Example 1.443], for which the IC50 lay in the range of 50 to 500 nM.
On to `Cc1cccc(OCC(C)C)c1-n1nc2c(c1-c1ccc(CO)cc1)CN(c1ccccc1C(C)(C)C)CC2` [Example 1.450], for which the concentration for half-maximal inhibition (IC50) was 50 to 500 nM.
Regarding `Cc1cccc(OC(C)C)c1-n1nc2c(c1-c1ccc(N)cc1)CN(c1ccccc1C(C)C)CC2` [Example 1.465], the IC50 was 5 to 50 nM.
Consider `Cc1cccc(OCC(C)C)c1-n1nc2c(c1-c1ccc(NC(N)=O)cc1)CN(CC(C)(C)C(F)(F)F)CC2` [Example 1.373], for which the half-inhibitory concentration (IC50) lay within 5 to 50 nM.
Take `Cc1cccc(OCC(C)C)c1-n1nc2c(c1-c1cc(F)c(NC(N)=O)cc1F)CN(C(c1ccccc1)C(F)(F)F)CC2` (centres unmarked) [Example 1.196]: the IC50 is at most 5 nM.
As to `CC(C)(c1ccccc1)N1CCc2nn(-c3ccccc3OCC(F)(F)F)c(-c3cc(F)c(NC(N)=O)cc3F)c2C1` [Example 1.136], the half-maximal inhibitory concentration (IC50) was at most 5 nM.
The same measure for `Cc1cccc(OC(C)C)c1-n1nc2c(c1-c1ccc(NC(N)=O)cc1)CN(c1ccccc1C(C)C)CC2` [Example 1.460]: at most 5 nM.
As to `Cc1ccc(C(F)(F)F)cc1N1CCc2nn(-c3c(C)cccc3OCC(C)C)c(-c3ccc(NC(N)=O)cc3)c2C1` [Example 1.418], the 50% inhibitory concentration (IC50) was 5 to 50 nM.
Regarding `CCc1cccc(CC)c1-n1nc2c(c1-c1ccc(NC(N)=O)cc1)CN(CC(C)(C)C(F)(F)F)CC2` [Example 1.285], the IC50 was in the range of 5 to 50 nM.
Regarding `CC(C)COc1ccccc1-n1nc2c(c1-c1cc(F)c(NC(N)=O)cc1F)CN(c1ncc(C(F)(F)F)cc1F)CC2` [Example 1.205], the IC50 was at most 5 nM.
Regarding `COc1cc(NC(N)=O)c(F)cc1-c1c2c(nn1-c1c(C)cccc1OCC(C)C)CCN(c1ncc(C(C)C)cc1F)C2` [Example 1.130], the IC50 was at most 5 nM.
As to `CCc1cccc(CC)c1-n1nc2c(c1-c1cc(F)c(NC(N)=O)cc1F)CN(Cc1ccc(C(F)(F)F)cc1)CC2` [Example 1.065], the half-inhibitory concentration (IC50) is at most 5 nM.
For `Cc1cccc(OCC(C)C)c1-n1nc2c(c1-c1ccc(NC(N)=O)c(F)c1)CN(Cc1ccc(C(F)(F)F)cc1C(F)(F)F)CC2` [Example 1.277], the IC50 was at most 5 nM.
`Cc1ccc(C(C)(C)C)cc1N1CCc2nn(-c3c(C)cccc3C(C)C)c(-c3ccc(NC(N)=O)cc3)c2C1` [Example 1.388]: the IC50 was in the range of 5 to 50 nM.
For the compound `Cc1ccc(C(C)(C)C)cc1N1CCc2nn(-c3ccccc3C(C)C)c(-c3ccc(NC(N)=O)cc3)c2C1` [Example 1.403], the IC50 lay within 50 to 500 nM.
Consider `Cc1cc(C(C)C)cnc1N1CCc2nn(-c3c(C)cccc3OCC(C)C)c(-c3cc(F)c(NC(N)=O)cc3F)c2C1` [Example 1.185], for which the concentration for half-maximal inhibition (IC50) is at most 5 nM.
Turning to `Cc1cccc(OCC(C)C)c1-n1nc2c(c1-c1ccc(NC(N)=O)cc1)CN(c1ccc(C(F)(F)F)cc1)CC2` [Example 1.407], the concentration for half-maximal inhibition (IC50) lay within 5 to 50 nM.
Under `CCCCN1CCc2nn(-c3c(C)cccc3OCC(C)C)c(-c3ccc(NC(N)=O)c(F)c3)c2C1` [Example 1.231] stands 5 to 50 nM; under `CCc1cccc(CC)c1-n1nc2c(c1-c1cc(F)c(NC(N)=O)cc1F)CN(Cc1cc(C(F)(F)F)ccc1F)CC2` [Example 1.039], at most 5 nM.
In the case of `Cc1cccc(OCC(C)C)c1-n1nc2c(c1-c1cc(F)c(NC(N)=O)cc1F)CN(c1ncc(Cl)cn1)CC2` [Example 1.175], the IC50 is at most 5 nM.
With `Cc1cccc(OCC(C)C)c1-n1nc2c(c1-c1ccc(C(N)=O)cc1)CN(c1ccccc1C(C)(C)C)CC2` [Example 1.453], the IC50 was in the range of 5 to 50 nM.
As to `CCc1cccc(CC)c1-n1nc2c(c1-c1cc(F)c(NC(N)=O)cc1F)CN(CC1CCOCC1)CC2` [Example 1.019], the IC50 fell in the range of 5 to 50 nM.
The same measure for `CCc1cccc(CC)c1-n1nc2c(c1-c1ccc(NC(N)=O)cc1)CN(C(c1ccccc1C(F)(F)F)C(C)C)CC2` (centres unmarked) [Example 1.281]: at most 5 nM; for `Cc1cccc(OCC(C)C)c1-n1nc2c(c1-c1ccc(NC(N)=O)cc1)CN(CC(C)(C)C)CC2(C)C` [Example 1.260]: above 500 nM.
The same measure for `Cc1ccc(CN2CCc3nn(-c4c(C)cccc4OCC(C)C)c(-c4ccc(NC(N)=O)cc4)c3C2)c(F)c1` [Example 1.308]: at most 5 nM; for `Cc1cnc(N2CCc3nn(-c4c(C)cccc4OCC(C)C)c(-c4cc(F)c(NC(N)=O)cc4F)c3C2)c(Cl)c1` [Example 1.190]: at most 5 nM.
Under `Cc1cccc(OCC(C)C)c1-n1nc2c(c1-c1ccc(NC(N)=O)cc1)CN(Cc1c(F)cccc1Cl)CC2` [Example 1.350] stands 5 to 50 nM.
With `Cc1cccc(C)c1-n1nc2c(c1-c1cc(F)c(NC(N)=O)cc1F)CN(c1ncc(C3CC3)cc1Cl)CC2` [Example 1.124], the 50% inhibitory concentration (IC50) was at most 5 nM.
As to `COC(=O)CC(c1ccccc1)N1CCc2nn(-c3c(C)cccc3C)c(-c3cc(F)c(NC(N)=O)cc3F)c2C1` (centres unmarked) [Example 1.074], the IC50 is at most 5 nM.
For the compound `Cc1cccc(OCC(C)C)c1-n1nc2c(c1-c1ccc(N)cc1)CN(c1ccccc1C(C)(C)C)CC2` [Example 1.455], the half-inhibitory concentration (IC50) was 5 to 50 nM.
As to `CCc1cccc(CC)c1-n1nc2c(c1-c1cc(F)c(NC(N)=O)cc1F)CN(C(C)(C)c1ccccc1F)CC2` [Example 1.186], the 50% inhibitory concentration (IC50) was at most 5 nM.
For `Cc1cc(C(F)(F)F)ccc1CN1CCc2nn(-c3c(C)cccc3OCC(C)C)c(-c3ccc(NC(N)=O)cc3)c2C1` [Example 1.384], the 50% inhibitory concentration (IC50) fell in the range of 5 to 50 nM.
In the case of `CCc1cccc(CC)c1-n1nc2c(c1-c1cc(F)c(NC(N)=O)cc1F)CN(Cc1ccccc1)CC2` [Example 1.051], the 50% inhibitory concentration (IC50) was at most 5 nM.
Regarding `Cc1cccc(OCC(C)C)c1-n1nc2c(c1-c1ccc(NC(N)=O)c(F)c1Cl)CN(c1ncc(C(F)(F)F)cc1F)CC2` [Example 1.222], the half-maximal inhibitory concentration (IC50) is at most 5 nM.
Regarding `Cc1cccc(OCC(C)C)c1-n1nc2c(c1-c1ccc(NC(N)=O)cc1)CN(C1CCCC1C)CC2` (centres unmarked) [Example 1.397], the IC50 lay in the range of 50 to 500 nM.
Take `Cc1cccc(C)c1-n1nc2c(c1-c1cc(F)c(NC(N)=O)cc1F)CN(c1ccc(C(F)(F)F)cc1F)CC2` [Example 1.122]: the IC50 is at most 5 nM.
In the case of `CCC(CC)N1CCc2nn(-c3c(C)cccc3OCC(C)C)c(-c3ccc(NC(N)=O)c(F)c3)c2C1` [Example 1.255], the IC50 is at most 5 nM.
The same measure for `Cc1cccc(OCC(C)C)c1-n1nc2c(c1-c1ccc(NC(N)=O)cc1)CN(Cc1cc(C(F)(F)F)ccc1C(F)(F)F)CC2` [Example 1.335]: at most 5 nM; for `Cc1cccc(OCC(C)C)c1-n1nc2c(c1-c1ccc(NC(N)=O)cc1)CN(Cc1ccc(Cl)cc1Cl)CC2` [Example 1.328]: at most 5 nM.
In the case of `CC(C)(c1ccccc1)N1CCc2nn(-c3ccccc3OC(F)(F)F)c(-c3cc(F)c(NC(N)=O)cc3F)c2C1` [Example 1.138], the IC50 was at most 5 nM.
For the compound `CC(C)COc1cccc(F)c1-n1nc2c(c1-c1cc(F)c(NC(N)=O)cc1F)CN(c1ncc(Cl)cc1Cl)CC2` [Example 1.188], the IC50 was at most 5 nM.
Consider `Cc1cccc(Cl)c1CN1CCc2nn(-c3c(C)cccc3OCC(C)C)c(-c3ccc(NC(N)=O)cc3)c2C1` [Example 1.359], for which the concentration for half-maximal inhibition (IC50) was at most 5 nM.
